# Data from article PMC9969401, “Discovery of 2-(3-Benzamidopropanamido)thiazole-5-carboxylate Inhibitors of the Kinesin HSET (KIFC1) and the Development of Cellular Target Engagement Probes” (Journal of Medicinal Chemistry, 2023).
# Like-named read-outs stand apart in the source and are kept apart here.
# Experiments:
# [1] = Kinetic aqueous solubility (KSol), HPLC-UV; format: physicochemical; settings: PBS buffer pH 7.4, 100 μM solution with 1% DMSO, HPLC with UV detection
# [2] = target: T1, recombinant full-length HSET (Homo sapiens, UniProt Q9BW19); test: ADP-Glo HSET assay (3 μM ATP), microtubule-stimulated ATPase; format: biochemical
# T1 construct: 5 nM full-length human N-terminal His-tag HSET; His-tag (N)
# T1 sequence (Q9BW19 1-673): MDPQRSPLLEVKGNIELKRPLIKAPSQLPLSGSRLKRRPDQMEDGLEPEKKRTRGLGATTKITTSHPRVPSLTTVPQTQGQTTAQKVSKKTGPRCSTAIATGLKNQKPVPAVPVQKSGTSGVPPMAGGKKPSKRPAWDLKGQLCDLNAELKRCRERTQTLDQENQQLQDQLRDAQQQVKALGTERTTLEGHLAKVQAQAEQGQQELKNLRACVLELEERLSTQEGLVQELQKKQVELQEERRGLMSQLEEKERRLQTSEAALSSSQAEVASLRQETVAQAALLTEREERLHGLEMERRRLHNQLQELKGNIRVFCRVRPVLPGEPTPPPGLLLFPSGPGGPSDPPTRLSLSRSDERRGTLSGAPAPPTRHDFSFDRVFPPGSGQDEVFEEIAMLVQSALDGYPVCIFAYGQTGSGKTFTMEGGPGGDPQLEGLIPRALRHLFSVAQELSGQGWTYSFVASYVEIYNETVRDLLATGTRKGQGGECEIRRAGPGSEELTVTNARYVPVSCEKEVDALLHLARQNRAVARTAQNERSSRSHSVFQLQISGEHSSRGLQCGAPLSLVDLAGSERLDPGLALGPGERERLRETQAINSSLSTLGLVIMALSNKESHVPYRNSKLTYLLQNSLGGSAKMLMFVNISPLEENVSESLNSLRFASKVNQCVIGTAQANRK
# Description: (§1) The HSET or Eg5 ATPase activity was measured using the ADP-Glo Kinase Assay kit (Promega, V9102). The assays were run using final concentrations of 5 nM full-length human N-terminal His-tag HSET or 4 nM GST-tagged Eg5 motor domain protein (Cytoskeleton, EG01) and an assay buffer containing 20 mM HEPES pH 6.8, 10 mM MgCl2, 0.25 mM EGTA, 0.4 mM Triton X-100, and 1 mM DTT. Preformed microtubules (Universal Biologicals Cambridge, bovine MT001-XL, or porcine MT002-XL), which were reconstituted in 15 mM PIPES pH 7, 1 mM MgCl2, and 20 μM paclitaxel, were present at a final assay concentration of 70 μg/mL. A reaction volume of 5 μL was used in Proxiplate 384 plus white assay plates (PerkinElmer, 6008280). To measure compound inhibition, 100 nL of compound dissolved in DMSO or DMSO alone was preincubated with the HSET and microtubules for 10 min before 3 μM Ultra-Pure ATP was added to start the ATPase reaction for the 3 μM ATP HSET assay. For the 500 μM ATP HSET assay, the addition of 500 μM Ultra-Pure ATP was used. For the Eg5 ATPase assay, 4.8 μM Ultra-Pure ATP was used. All reactions were incubated at 25 °C for 80 min and then stopped by the addition of 5 μL of the ADP-Glo reagent. 10 μL of Kinase Detection Reagent was then added after a further 45 min of incubation. The luminescence was read after 45 min on a PheraStar FSX plate reader (BMG Labtech). The data processing was performed using Dotmatics Studies software package. Percentage inhibition was determined based on normalization to high controls (0% inhibition, all reagents with 100 nL of DMSO alone) and low controls (100% inhibition […], without HSET). The IC50 values for each compound were determined using a four-parameter logistic curve fit of % inhibition versus concentration.
# [3] = target: T2, GST-tagged Eg5 motor domain (Homo sapiens, UniProt P52732); test: ADP-Glo Eg5 assay (4.8 μM ATP); format: biochemical; settings: for IC50: preformed microtubules, 4.8 μM ATP (Table 4)
# T2 construct: 4 nM GST-tagged Eg5 motor domain protein (Cytoskeleton, EG01); purchased Cytoskeleton EG01
# T2 sequence (P52732 18-359 limits assumed): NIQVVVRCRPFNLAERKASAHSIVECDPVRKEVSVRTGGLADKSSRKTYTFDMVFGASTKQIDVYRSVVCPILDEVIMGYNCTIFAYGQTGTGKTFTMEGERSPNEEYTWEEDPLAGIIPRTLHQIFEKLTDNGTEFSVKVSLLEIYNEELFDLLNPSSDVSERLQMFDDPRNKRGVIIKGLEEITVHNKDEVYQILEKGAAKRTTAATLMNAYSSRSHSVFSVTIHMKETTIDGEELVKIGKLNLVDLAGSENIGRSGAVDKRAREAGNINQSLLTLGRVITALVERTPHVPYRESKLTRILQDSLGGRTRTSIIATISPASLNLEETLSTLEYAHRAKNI
# Description: as §1
# [4] = tested on: centrosome-amplified (4NCA) DLD1 cells; test: Multipolar spindle assay (4NCA cell line); format: cell-based, human
# From the text: (§2) The cellular models consisted of chromosomally stable human colon cancer DLD1 diploid (2N) and tetraploid (4N) cells, along with tetraploid centrosome -amplified (4NCA) DLD1 cells and DLD1 HSET knockout (KO) cells. DLD1 2N and 4N cells were generated and characterized as previously described.[27],[41],[42] In order to generate 4NCA cells, we used dihydro-cytochalasin B (DCB) to transiently block cytokinesis and induce tetraploidisation and centrosome amplification in DLD1 cells. Centrosome amplification in 4NCA cells is transient and therefore they were generated from 2N cells for each run of the assay.[27] The DLD1 HSET KO cells were knockout clones generated by CRISPR and validated by sequencing to have a homozygous deletion in the KIFC1 gene.
# (§3) Inhibition of HSET-mediated clustering was measured using a phenotypic assay measuring the formation of multipolar metaphase spindles in DLD1 cells with (4NCA) or without (4N) centrosome amplification. 4NCA cells were generated by treating 2N DLD1 cells with 2 μΜ DCB for 24 h, washed, and released in growth media for 24 h. 4N and 4NCA DLD1 cells were plated in 96-well ibidi μ-Clear plates (IB-89626, ibidi) with a no. 1.5 polymer coverslip bottom with optimal imaging properties. To enrich the mitotic population, cells were first treated for 3.5 h with 8 μM pro-TAME (I-440-01M, R&D system), an inhibitor of APC/C that transiently arrests cells in metaphase without affecting the structure of the spindle. Following the initial arrest, cells were treated with HSET compounds in the presence of 8 μM MG-132 (S2619, SelleckChem), a proteasome inhibitor that helps to maintain the metaphase arrest, where the number of spindle poles/cell can be optimally quantified by an automated segmentation analysis.
# (§4) Cells were then fixed in methanol and stained for 3 h for mitotic pole marker aurora A (1:1000 610939 mouse anti-IAK1, BD Biosciences) and phosphorylated histone H3 (1:1500 ab47297 anti-histone H3 pS10, Abcam) as a marker of mitotic cells in 1.5% FBS in PBS. Following primary antibody treatment, cells were incubated with secondary antibodies Alexa Fluor 488 goat antimouse and Alexa Fluor 555 goat antirabbit (1:1500, A11029 and A21429, respectively, Life Technologies) together with 1 μg/mL DAPI (D9542, Sigma) in 1.5% FBS in PBS. Image acquisition was performed at 10× using the GE INCELL 2200 High Content Imaging System (Cytiva) and analyzed using the InCell Investigator software. Mitotic cells were identified by high pHH3 staining and were scored as multipolar if they had more than two mitotic spindle poles. The percentage of multipolar mitoses was calculated by dividing the number of multipolar mitoses by the total of all visible mitoses in one well of a 96-well plate (n > 100 for each replicate, two replicates per concentration point).
# [5] = tested on: non-centrosome amplified DLD1 (4N) cells; test: Multipolar spindle assay (4N cell line); format: cell-based, human; settings: for % Multipolarity above baseline @ 15 mM (4N cells): supplementary CSV; for % multipolarity above baseline @ 15 μM (4N cells): 4N DLD1 cells (Table 4)
# From the text: as §2, §3, §4
# [6] = preformed microtubules, 3 μM ATP, mean (±SD) n ≥ 3 (37 n = 2, 38 single determination) (Table 3), read-out: HSET ADP-Glo IC50
# [7] = preformed microtubules, 3 μM ATP, mean (±SD) n ≥ 3, >200 from a single determination (Table 2), read-out: HSET ADP-Glo IC50
# [8] = preformed microtubules, 3 μM ATP, mean (±SD) n ≥ 3, >200 from a single determination (Table 1), read-out: HSET ADP-Glo IC50
# [9] = 15 μM, 4NCA DLD1 cells (Table 4)
# [10] = 15 µM, 4NCA cells, supplementary CSV
# [11] = LE = −1.4Log(IC50 [M])/number of non-hydrogen atoms (Table 1)
# [12] = LLE = −Log(IC50 [M]) – cLogP (MoKa) (Table 1)
# [13] = preformed microtubules, 3 μM ATP, mean (±SD) n ≥ 3 (Table 4), read-out: HSET ADP-Glo IC50
structure (smiles),measurement,setting,value
"CCCOC(=O)c1sc(NC(=O)C[C@@H](CCCNC)NC(=O)c2cccc(-c3noc(C)n3)c2)nc1C [Compound 34, Propyl (R)-4-Methyl-2-(3-(3-(5-methyl-1,2,4-oxadiazol-3-yl)benzamido)-6-(methylamino)hexanamido)thiazole-5-carboxylate]",KSol data,[1],>90 µM
same,IC50,[2]; [6],260 nM
"CCCOC(=O)c1sc(NC(=O)C[C@H](CCCN)NC(=O)c2cccc(-c3noc(C)n3)c2)nc1C [Compound 33, Propyl (S)-2-(6-Amino-3-(3-(5-methyl-1,2,4-oxadiazol-3-yl)benzamido)hexanamido)-4-methylthiazole-5-carboxylate]",KSol data,[1],>90 µM
same,IC50,[2]; [6],13 nM
"CCCOC(=O)c1sc(NC(=O)C[C@H](CCCN(C)CCOCCOCCNC(=O)O[C@@H]2CC/C=C/CCC2)NC(=O)c2cccc(-c3noc(C)n3)c2)nc1C [Compound 39, Propyl 2-((S)-1-(((S,E)-Cyclooct-4-en-1-yl)oxy)-11-methyl-15-(3-(5-methyl-1,2,4-oxadiazol-3-yl)benzamido)-1-oxo-5,8-dioxa-2,11-diazaheptadecan-17-amido)-4-methylthiazole-5-carboxylate]",KSol data,[1],53 µM
same,IC50,[2]; [6],107 nM
"CCOC(=O)c1sc(N(C)C(=O)CCNC(=O)c2cccc(-c3noc(C)n3)c2)nc1C [Compound 23, Ethyl 4-Methyl-2-(N-methyl-3-(3-(5-methyl-1,2,4-oxadiazol-3-yl)benzamido)propanamido)thiazole-5-carboxylate]",LE,[2]; LE = −1.4Log(IC50 [M])/number of non-hydrogen atoms (Table 2),0.31
same,LLE,[2]; LLE = −Log(IC50 [M]) – cLogP (MoKa) (Table 2),4.6
same,IC50,[2]; [7],89 nM
"Cc1csc(NC(=O)CCNC(=O)c2cccc(-c3noc(C)n3)c2)n1 [Compound 20, 3-(5-Methyl-1,2,4-oxadiazol-3-yl)-N-(3-((4-methylthiazol-2-yl)amino)-3-oxopropyl)benzamide]",IC50,[2]; [7],> 200000 nM
same,fold reduction in HSET potency,[2]; relative to 13,3000 fold
"CCOC(=O)c1sc(NC(=O)CCNC(C)=O)nc1C [Compound 8, ethyl 2-(3-acetamidopropanamido)-4-methylthiazole-5-carboxylate]",HSET inhibitory activity (in words),[2]; HSET ADP-Glo,ablated the activity
same,IC50,[2]; [8],> 200000 nM
"CCOC(=O)c1sc(NC(=O)CCNC(=O)c2cccc(C)c2)nc1C [Compound 2, Ethyl 4-Methyl-2-(3-(3-methylbenzamido)propanamido)thiazole-5-carboxylate]",IC50,[3],> 200 µM
same,inhibition at 200 µM,[3]; top concentration of 200 μM,10%
same,% multipolarity above baseline @ 15 μM (4NCA cells),[4]; [9],0%
same,% multipolarity above baseline @ 15 μM (4NCA cells),[4]; [10],0%
same,% Multipolarity above baseline @ 15 mM (4N cells),[5]; 15 μM,1%
same,% multipolarity above baseline @ 15 μM (4N cells),[5],1%
same,ligand efficiency (LE),[2],0.30
same,lipophilic ligand efficiency (LLE),[2],2.5
same,IC50,"[2]; ATP concentration of 3 μM, read-out: HSET IC50",2700 nM
same,IC50,"[2]; ATP concentration of 150 μM, read-out: HSET IC50 at higher ATP concentration",7100 nM
same,LE,[2]; [11],0.30
same,LLE,[2]; [12],2.5
same,IC50,[2]; [13],2730 nM
same,IC50,[2]; [8],2730 nM
"CCOC(=O)c1sc(NC(=O)CCNC(=O)c2cccc(-c3noc(C)n3)c2)nc1C [Compound 13, Ethyl 4-Methyl-2-(3-(3-(5-methyl-1,2,4-oxadiazol-3-yl)benzamido)propanamido)thiazole-5-carboxylate]",IC50,[3],> 200 µM
same,% multipolarity above baseline @ 15 μM (4NCA cells),[4]; [9],9%
same,% multipolarity above baseline @ 15 μM (4NCA cells),[4]; [10],9%
same,increase in mitotic spindle multipolarity (4NCA),"[4]; 15 μM, centrosome-amplified (4NCA) DLD1 cell line",~10%
same,% Multipolarity above baseline @ 15 mM (4N cells),[5]; 15 μM,1%
same,"effect on multipolar mitoses (4N), in words","[5]; 15 μM, non-centrosome amplified DLD1 (4N) cell line",no increases in multipolar mitoses
same,% multipolarity above baseline @ 15 μM (4N cells),[5],1%
same,LE,[2]; [11],0.33
same,LLE,[2]; [12],4.6
same,IC50,[2]; [13],63 nM
same,IC50,[2]; [8],63 nM
"CCOC(=O)c1sc(NC(=O)CCNC(=O)c2cccc(-c3nnc(C)o3)c2)nc1C [Compound 16, Ethyl 4-Methyl-2-(3-(3-(5-methyl-1,3,4-oxadiazol-2-yl)benzamido)propanamido)thiazole-5-carboxylate]",LE,[2]; [11],0.3
same,LLE,[2]; [12],4.4
same,IC50,[2]; [8],260 nM
